{"source": "patent US20230389545A1", "about": "“ANTIMICROBIAL COMPOSITION” (The Procter & Gamble Company, priority 2022, published 2023)", "key": {"[1]": {"assay": "Stability of the isolated solid followed by 1H NMR", "assay_type": "physicochemical", "settings": "storage"}, "Gram Negative": {"test_system": "Gram Negative", "assay": "Surface Antimicrobial Kill Testing Method, activity normalized to triclosan internal standard", "assay_type": "cell-based", "settings": "for antimicrobial benefit (in words, comment on Table 2B): DPGME / Surfonic L24-9 composition; for antimicrobial activity (in words, comment on Table 1B): composition with nonionic surfactant and non-aqueous solvent", "method": "Inoculum is prepared by streaking microorganism onto a Tryptic Soy Agar (TSA) plate and incubating for 24 h at 33° C. Plated bacteria is resuspended in saline until the transmittance percentage falls within the accepted range for ˜10^8 cfu/mL. For K. pneumonia (Kp) and P. aeruginosa (Pa), this is 31.00-33.00% T. For S. aureus (Sa) this is 23.00-25.00% T. A 10× concentration is made by spinning down the prepared inoculum, removing the supernatant saline from the bacterial pellet, then resuspending the pellet in 1/10th of the original volume of saline. The final inoculum is prepared with 5% of “soil” in the form of Fetal Bovine Serum (FBS).\nA 18×18 mm sterile glass coverslip is placed into an appropriate container (e.g. petri dish). 20 μL of prepared inoculum is added to the glass coverslip. Inoculum is then air-dried for 30 minutes in a 36° C. incubator. After drying, 40 μL of test sample is added on top of the dried inoculum. This is incubated at room temperature for the desired contact time. 5 mL of neutralizing media (Modified Letheen Broth+Tween+Lecithin (MLBTL)) is added to the coverslip and shaken on an orbital shaker for 5 minutes to ensure proper neutralization and extraction. Viability is then assessed of the neutralized and extracted sample by traditional/alternative microbiological techniques.\nThe normalized antimicrobial activity reported in the performance examples below was generated from detection time data obtained as described in the Surface Antimicrobial Kill Test Method. To account for day-to-day variability an internal standard was tested with each series. […] Normalized activity is reported following the equation 1 below.\nNormalized Activity=(αΔDT−βΔDT)/(γΔDT−βΔDT) equation 1.\nwhere, αΔDT is the average detection time of the antimicrobial compound, and γΔDT is the average detection time of the reference triclosan internal standard, and βΔDT is the average detection time of the background unperturbed bacteria.\nModified amino acids of the present disclosure were tested as aqueous solutions in the Surface Antimicrobial Kill Testing Method above. To prepare test solutions modified amino acids were first dissolved in the appropriate solvent. Second the selected surfactant is added to the mixture. After vortex (1 min, Vortex-2 Genie, vortex speed 8) mixing, the samples were then diluted with […] of reverse osmosis water (RO water, Millipore Direct-Q™, pH 6). The aqueous solution was then vortexed (1 min, Vortex-2 Genie, vortex speed 8), to which the second ½ portion of water is added. The pH of the solution was then adjusted to the target pH using either 1N HCl, Glacial Acetic Acid, or 1N NaOH. The final solution was then vortexed (1 min, Vortex-2 Genie, vortex speed 8). An example batch sheet is provided below in Table 1.\nAfter treatment, microbial growth is referenced and reported to a triclosan sample and unaltered microbes according to the Normalization of Antimicrobial Activity provided above."}}}
{"smiles": "CCCCCCCCCCCCOC(=O)[C@@H](N)Cc1c[nH]c2ccccc12", "note": "[Synthetic Example 4]", "values": [{"measurement": "stability of the independent solid by 1H NMR", "setting": "[1]", "value": "stable for several months"}]}
{"smiles": "CC/C=C\\CCCCCOC(=O)[C@@H](N)Cc1ccc(O)cc1", "note": "[Synthetic Example 6]", "values": [{"measurement": "antimicrobial benefit (in words, comment on Table 2B)", "setting": "Gram Negative", "value": "antimicrobial benefit over the solvent/surfactant alone and over Comparative Example C2"}, {"measurement": "stability of the independent solid by 1H NMR", "setting": "[1]", "value": "stable for several months"}]}
{"smiles": "CC(C)(C)OC(=O)[C@@H](N)Cc1c[nH]c2ccccc12", "note": "[Synthetic Example 1, L-tryptophan tert-butyl ester]", "values": [{"measurement": "antimicrobial activity (in words, comment on Table 1B)", "setting": "Gram Negative", "value": "proved to be antimicrobial"}, {"measurement": "stability of the independent solid by 1H NMR", "setting": "[1]", "value": "stable for several months"}]}
{"smiles": "CCCCCCCCOC(=O)[C@@H](N)Cc1ccc(O)cc1", "note": "[Synthetic Example 5]", "values": [{"measurement": "antimicrobial benefit (in words, comment on Table 2B)", "setting": "Gram Negative", "value": "antimicrobial benefit over the solvent/surfactant alone and over Comparative Example C2"}, {"measurement": "antimicrobial efficacy versus pH (in words, comment on Table 3)", "setting": "Gram Negative; composition pH of about 2 to less than about pH 9", "value": "improved antimicrobial efficacy"}, {"measurement": "microbial activity with surfactants (in words, comment on Table 4)", "setting": "Gram Negative; with non-ionic and amphoteric surfactants, isotropic solutions", "value": "improved microbial activity over the aqueous solution of the modified amino acid alone"}, {"measurement": "stability of the independent solid by 1H NMR", "setting": "[1]", "value": "stable for several months"}]}
{"smiles": "CCCCCC(CCC)COC(=O)[C@@H](N)Cc1ccc(O)cc1", "note": "(stereo partly shown) [Synthetic Example 7]", "values": [{"measurement": "antimicrobial benefit (in words, comment on Table 2B)", "setting": "Gram Negative", "value": "antimicrobial benefit over the solvent/surfactant alone and over Comparative Example C2"}, {"measurement": "stability of the independent solid by 1H NMR", "setting": "[1]", "value": "stable for several months"}]}
{"smiles": "CCCCCCCCOC(=O)[C@@H](N)Cc1c[nH]c2ccccc12", "note": "[Synthetic Example 3]", "values": [{"measurement": "antimicrobial activity (in words, comment on Table 1B)", "setting": "Gram Negative", "value": "highest antimicrobial activity"}, {"measurement": "stability of the independent solid by 1H NMR", "setting": "[1]", "value": "stable for several months"}]}
